# Measurements as given in US7332476B2, “Pyridyl substituted ketolide antibiotics” (Novartis AG, priority 2003, dated 2008).
# Assays:
# [1] = tested on: Enterococcus faecalis Enfa_29212; assay: MIC, broth microdilution (NCCLS); assay type: cell-based
# How it was run: (§1)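 Broth microdilution per NCCLS in cation-adjusted Mueller-Hinton broth, with 2-5% lysed horse blood added for S. pneumoniae. Inoculum 3×10^5–7×10^5 CFU/ml, 2-fold drug dilutions, 18-24 h at 35° C; S. pneumoniae under 5-10% CO2, others ambient air. MIC = lowest concentration preventing visible growth.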
# [2] = tested on: Haemophilus influenzae Hain_49247; assay: MIC, broth microdilution (NCCLS); assay type: cell-based; details: unit assumed
# [3] = tested on: Staphylococcus aureus Stau_29213; assay: MIC, broth microdilution (NCCLS); assay type: cell-based
# How it was run: as §1
# [4] = tested on: Staphylococcus epidermidis Step_14990; assay: MIC, broth microdilution (NCCLS); assay type: cell-based
# How it was run: as §1
# [5] = tested on: Staphylococcus epidermidis Step_f50654; assay: MIC, broth microdilution (NCCLS); assay type: cell-based
# How it was run: as §1
# [6] = tested on: Streptococcus pneumoniae Stpn_Erm S 4297; assay: MIC, broth microdilution (NCCLS); assay type: cell-based
# How it was run: as §1
# [7] = tested on: Enterococcus faecalis Enfa_bc 11148-2; assay: MIC, broth microdilution (NCCLS); assay type: cell-based; details: in µg/mL (unit assumed)
# How it was run: (§2)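 Compounds dissolved in methanol, diluted in water, then 2-fold serially diluted in CAMHB (H. influenzae: Haemophilus Test Medium). Inoculated at 3×10^5–7×10^5 CFU/ml from 0.5 McFarland suspension, incubated 35° C for 18-24 h, and scored for visible growth.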
# [8] = tested on: Haemophilus influenzae Hain_2762; assay: MIC, broth microdilution (NCCLS); assay type: cell-based; details: in µg/mL (unit assumed)
# How it was run: as §2
# [9] = tested on: Haemophilus influenzae Hain_953460299-3; assay: MIC, broth microdilution (NCCLS); assay type: cell-based; details: in µg/mL (unit assumed)
# How it was run: as §2
# [10] = tested on: Haemophilus influenzae Hain_960730503-3; assay: MIC, broth microdilution (NCCLS); assay type: cell-based; details: in µg/mL (unit assumed)
# How it was run: as §2
# [11] = tested on: Haemophilus influenzae Hain_960820544-3; assay: MIC, broth microdilution (NCCLS); assay type: cell-based; details: in µg/mL (unit assumed)
# How it was run: as §2
# [12] = tested on: Staphylococcus aureus Stau_33591; assay: MIC, broth microdilution (NCCLS); assay type: cell-based; details: unit assumed
# How it was run: as §2
# [13] = tested on: Streptococcus pyogenes Stpy_8668; assay: MIC, broth microdilution (NCCLS); assay type: cell-based; set-up: MIC, strain ID G: unit not given beside the values
# How it was run: as §1
# [14] = tested on: Streptococcus pneumoniae Stpn_49619; assay: MIC, broth microdilution (NCCLS); assay type: cell-based; set-up: MIC, strain ID M: unit not given beside the values
# How it was run: as §1
# [15] = tested on: Streptococcus pneumoniae Stpn_297-749; assay: MIC, broth microdilution (NCCLS); assay type: cell-based; set-up: MIC, strain ID N: unit not given here
# How it was run: as §1
# [16] = tested on: Streptococcus pneumoniae Stpn_280-962; assay: MIC, broth microdilution (NCCLS); assay type: cell-based; set-up: MIC, strain ID O: unit not given beside the values
# How it was run: as §1
# [17] = tested on: S. pneumoniae Stpn_Erm 6849; assay: MIC, broth microdilution (NCCLS); assay type: cell-based, Streptococcus pneumoniae; details: strain ID P; broth microdilution; in µg/mL (unit assumed)
# How it was run: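 Lowest drug concentration giving no visible growth after 18-24 hours at 35° C. under 5-10% CO2 was taken as MIC. Twofold serial dilutions in CAMHB plus 2-5% lysed horse blood, final inoculum 3×10^5–7×10^5 CFU/ml, per NCCLS microdilution.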
# [18] = In vivo pharmacokinetic study in rats, plasma (IV and PO); set-up: species or system Sprague-Dawley rats; details: rat; for half-life / AUC / clearance / Vd: male, Sprague-Dawley, plasma; for half-life: 5 mg/kg, read-out: t1/2, IV Plasma (converted); for half-life / AUC: IV; for AUC: dose IV = 5 mg/kg (Compound XIV: IV = 15); for clearance / Vd: intravenous; for Vd: read-out: Vss; for F, PO: PO = 15 mg/kg
# Description: (§3) Animal Models. A total of 54 male Sprague-Dawley rats, weighing 200 grams in average, were evaluated for pharmacokinetic studies of representative pyridyl substituted ketolides. Rats were under overnight food restriction and received water ad libitum. Rats were acclimated for approximately 5 days before antibiotic administration.
# (§4) Antibiotic Administration. Rats were given bolus administration through (IV) and oral (PO) routes. Representative pyridyl substituted ketolides and telithromycin, for comparison, were diluted in 0.85% saline to a concentration of 15.0 mg/ml, and the resulting pH was adjusted using 1N acetic acid until the compound was in solution. Approximately 200 microliters of the compound solution was administered to the rats. The target dose for IV and PO administration was 5 mg/kg and 15 mg/kg, respectively.
# (§5) Sample Collection. Plasma and whole lung samples were collected from the rats. Plasma samples were obtained from blood samples by centrifugation at 3000 RPM for 10 min. Heparin was added in the plasma as an anticoagulant. Whole lung samples were homogenized in deionized water. Samples were stored at −80° C. A total of 9 time points were collected in triplicate at 0.083, 0.25, 0.5, 1, 2, 4, 6, 8, and 24 hrs. Ketolide concentrations in plasma and lung were determined by well-established non-GLP LC-MS-MS methods. PK parameters were estimated from the raw bioanalytical data using WinNolin software (Version 4.0, Pharsight Corporation, CA). […] All representative compounds were compared to telithromycin.
# [19] = In vivo pharmacokinetic study in rats, whole lung (IV and PO); details: male, Sprague-Dawley, 5 mg/kg, rat; for half-life: IV, whole lung, read-out: t1/2, IV Lung (converted); for Kp: lung/plasma, iv, read-out: L/P ratio, IV
# Description: as §3, §4, §5
# [20] = tested on: Streptococcus pneumoniae Stpn_Mef S 3427; assay: MIC, broth microdilution (NCCLS); assay type: cell-based; details: Table 10, Strain ID Q (Table 8): Streptococcus pneumoniae Stpn_Mef S 3427
# How it was run: as §1
# [21] = tested on: Streptococcus pneumoniae Stpn_Mef 5654; assay: MIC, broth microdilution (NCCLS); assay type: cell-based; details: Table 10, Strain ID P (Table 8): Streptococcus pneumoniae Stpn_Mef 5654; in µg/mL (unit assumed)
# How it was run: as §1
compound,measurement,setting,value
C=C[C@]12OC(=O)N(CCCCn3cnc(-c4cnccc4Cl)c3)[C@@H]1[C@@H](C)C(=O)[C@H](C)C[C@](C)(OC)[C@H](OC1O[C@H](C)C[C@H](N(C)C)[C@H]1O)[C@@H](C)C(=O)[C@@H](C)C(=O)O[C@@H]2CC (stereo partly shown) [XXX],"MIC, strain ID E","[1]; strain ID E, broth microdilution",=0.05
same,"MIC, strain ID H","[2]; strain ID H, broth microdilution",3.13 µg/mL
same,"MIC, strain ID A","[3]; strain ID A, broth microdilution, in µg/mL (unit assumed)",0.2
same,"MIC, strain ID C","[4]; strain ID C, broth microdilution, in µg/mL (unit assumed)",0.2
same,"MIC, strain ID D","[5]; strain ID D, broth microdilution, in µg/mL (unit assumed)",0.1
same,"MIC, strain ID Q","[6]; strain ID Q, broth microdilution",=0.05
same,"MIC, strain ID F","[7]; strain ID F, broth microdilution",0.4
same,"MIC, strain ID L","[8]; strain ID L, broth microdilution",0.78
same,"MIC, strain ID K","[9]; strain ID K, broth microdilution",3.13
same,"MIC, strain ID I","[10]; strain ID I, broth microdilution",6.25
same,"MIC, strain ID J","[11]; strain ID J, broth microdilution",6.25
same,"MIC, strain ID B","[12]; strain ID B, broth microdilution",> 50 µg/mL
same,"MIC, strain ID G","[13]; strain ID G, broth microdilution",=0.05
same,"MIC, strain ID M","[14]; strain ID M, broth microdilution",=0.05
same,"MIC, strain ID N","[15]; strain ID N, broth microdilution",=0.05
same,"MIC, strain ID O","[16]; strain ID O, broth microdilution",=0.05
same,"MIC, strain ID P",[17],0.4
same,half-life,[18],1 h
same,AUC,[18],2100 ng·h/mL
same,clearance,[18],121 mL/min/kg
same,Vd,[18],8 L/kg
same,"F, PO",[18],21%
same,half-life,[19],1.2 h
same,Kp,[19],75
C=C[C@]12OC(=O)N(CCCCn3cnc(-c4ccc(Cl)nc4)c3)[C@@H]1[C@@H](C)C(=O)[C@H](C)C[C@](C)(OC)[C@H](OC1O[C@H](C)C[C@H](N(C)C)[C@H]1O)[C@@H](C)C(=O)[C@@H](C)C(=O)O[C@@H]2CC (stereo partly shown) [XX],MIC,"[1]; Table 10, Strain ID E (Table 8): Enterococcus faecalis Enfa_29212",=0.05
same,MIC,"[2]; Table 10, Strain ID H (Table 8): Haemophilus influenzae Hain_49247",3.13 µg/mL
same,MIC,"[3]; Table 10, Strain ID A (Table 8): Staphylococcus aureus Stau_29213",=0.05
same,MIC,"[4]; Table 10, Strain ID C (Table 8): Staphylococcus epidermidis Step_14990",=0.05
same,MIC,"[5]; Table 10, Strain ID D (Table 8): Staphylococcus epidermidis Step_f50654",=0.05
same,MIC,"[6]; Table 10, Strain ID R (Table 8): Streptococcus pneumoniae Stpn_Erm S 4297",=0.05
same,MIC,[20],=0.05
same,MIC,"[7]; Table 10, Strain ID F (Table 8): Enterococcus faecalis Enfa_bc 11148-2",0.1
same,MIC,"[8]; Table 10, Strain ID L (Table 8): Haemophilus influenzae Hain_2762",0.78
same,MIC,"[9]; Table 10, Strain ID K (Table 8): Haemophilus influenzae Hain_953460299-3",6.25
same,MIC,"[10]; Table 10, Strain ID I (Table 8): Haemophilus influenzae Hain_960730503-3",3.13
same,MIC,"[11]; Table 10, Strain ID J (Table 8): Haemophilus influenzae Hain_960820544-3",3.13
same,MIC,"[12]; Table 10, Strain ID B (Table 8): Staphylococcus aureus Stau_33591",> 50 µg/mL
same,MIC,"[13]; Table 10, Strain ID G (Table 8): Streptococcus pyogenes Stpy_8668",=0.05
same,MIC,"[14]; Table 10, Strain ID M (Table 8): Streptococcus pneumoniae Stpn_49619",=0.05
same,MIC,"[15]; Table 10, Strain ID N (Table 8): Streptococcus pneumoniae Stpn_297-749",=0.05
same,MIC,"[16]; Table 10, Strain ID O (Table 8): Streptococcus pneumoniae Stpn_280-962",=0.05
same,MIC,[21],0.2
same,half-life,[18],1.3 h
same,AUC,[18],2300 ng·h/mL
same,clearance,[18],107 mL/min/kg
same,Vd,[18],12 L/kg
same,"F, PO",[18],26%
same,half-life,[19],1.4 h
same,Kp,[19],94
